Reference: patent US10913952B2, “Environmental stress response transcriptional regulatory network” (Salk Institute for Biological Studies, priority 2016, dated 2021)

Columns and labels:
[1] = test system: ChIPped TFs; assay: Western blot of epitope-tagged ChIPped TFs after ABA treatment; type: in vivo, Arabidopsis thaliana; conditions: H3 loading control
[2] = test system: Arabidopsis thaliana; assay: RNA-seq of ABA-treated etiolated seedlings (ABA time series); type: in vivo
Experimental: For ABA time series experiments, two biological replicates of 3-day-old etiolated, hydroponic-grown wild-type Col-0 seedlings were treated either by 10 μM (+/−)-ABA (MP biomedicals LLC, cat. #190673) dissolved in ethanol or ethanol-only mock control for 1, 4, 8, 12, 24, 36, and 60 hours. For DEX treatment, short term experiment was carried out by treating 3-day-old etiolated, DEX-inducible GFP-DIG1, GFP-DIG2 or GFP lines with 10 μM DEX (Sigma Aldrich, cat. #D9184); long term experiment was carried out by growing the same lines of plants containing 500 nM DEX for 10 days. Total RNA was isolated using the RNeasy Plant Mini Kit (Qiagen, CA, USA, Cat. #74903), and cDNA libraries were constructed using the TruSeq Stranded Total RNA LT Sample Prep Kit (Illumina, CA, USA, Cat. #15032611) according to manufacturers' instructions. Single-end reads were generated by the HiSeq 2500 Sequencing System (Illumina) and mapped to TAIR10 genome assembly using TopHat 2 (v2.0.8) (56). Mapped reads with mapping score equal to or larger than 10 were counted by HTSeq (v0.5.4) (57) and analyzed by edgeR (v3.6.2) (18) to identify differentially expressed genes using contrasts between ABA- and mock-treated samples at each time point and false discovery rate 0.01 or 0.05 as thresholds.
The genome-wide binding dynamics of a diverse collection of TFs was profiled using ChIP-seq to develop an in planta ABA transcriptional regulatory network. ABA-responsive transcripts were first surveyed in Arabidopsis thaliana, by generating strand-specific RNA-seq libraries from 3-day-old etiolated whole seedlings treated with either 10 uM (+/−)-ABA or an ethanol-containing mock for 1, 4, 8, 12, 24, 36 and 60 hours (FIG. 1A). Among 18,310 expressed genes, 3,061 are DE (FDR<0.01, Table 1) (18) for at least one time point. One hour of ABA treatment leads to moderate DE of many genes, and most transcriptional responses plateau after 8 hours (FIGS. 1B, 2). On the basis of gene expression data, we performed ChIP-seq experiments at four hours post ABA dose. TFs were selected based on responsiveness to ABA and published evidence, aiming to provide a good representation of TF families (FIG. 3; Tables 1 and 2). In general, highly expressed and responsive TFs were chosen in each representative TF family because in the context of an in planta experimental framework, the impact of these TFs on gene expression can be more effectively investigated compared with their weakly expressed homologs. All TF genes were epitope tagged by a recombineering-based approach (19), mostly with large DNA transformable artificial chromosomes, allowing the TFs to be expressed under their native promoters and genomic context (Table 2). The final dataset consisted of one hundred and twenty-two ChIP-seq experiments of 21 TFs from 11 families, including mock- and ABA-treated conditions.

[3] = 10 uM ABA treatment for 4 hours

With CC1=CC(=O)CC(C)(C)C1(O)/C=C/C(C)=C\C(=O)O (racemic) [ABA, abscisic acid] the “protein abundance of most ChIPped TFs” value [1] was “elevated”, the “number of differentially expressed (DE) genes” value ([2]; 10 uM (+/-)-ABA vs ethanol mock, 1-60 hours, DE for at least one time point, FDR<0.01, among 18,310 expressed genes) was 3,061 and the “RNA-seq evidence: ABF1” value [2, 3] was “up regulated”. For the same compound, the “RNA-seq evidence: ABF3” value [2, 3] was “up regulated”, the “RNA-seq evidence: ABF4” value [2, 3] was “up regulated” and the “RNA-seq evidence: ANAC032” value [2, 3] was “up regulated”. For the same compound, the “RNA-seq evidence: ANAC102” value [2, 3] was “up regulated”, the “RNA-seq evidence: DREB2A” value [2, 3] was “up regulated” and the “RNA-seq evidence: FBH3” value [2, 3] was “up regulated”. The “RNA-seq evidence: GBF2” value [2, 3] was “up regulated”, the “RNA-seq evidence: GBF3” value [2, 3] was “up regulated” and the “RNA-seq evidence: HAT22” value [2, 3] was “up regulated”. For the same compound, the “RNA-seq evidence: HB6” value [2, 3] was “up regulated”, the “RNA-seq evidence: HSFA6A” value [2, 3] was “up regulated” and the “RNA-seq evidence: MYB3” value [2, 3] was “up regulated”. The “RNA-seq evidence: MYB44” value [2, 3] was “up regulated”, the “RNA-seq evidence: NF-YB2” value [2, 3] was “up regulated” and the “RNA-seq evidence: NF-YC2” value [2, 3] was “up regulated”. The “RNA-seq evidence: RD26 (ANAC072)” value [2, 3] was “up regulated”, the “RNA-seq evidence: ZAT6” value [2, 3] was “up regulated” and the “number of differentially expressed TFs” value ([2]; first 1, 4 or 8 hours of ABA treatment, edgeR FDR threshold 0.05) was “Two hundred and twenty-two”.
